Data as given in patent US8901036B2, “Combinations of phenylsulfonylurea herbicides and safeners” (Bayer Cropscience AG, priority 1994, dated 2014).

Legend:
Corn = test: Effect and selectivity in corn: phytotoxicity; assay type: in vivo; conditions: corn 4 leaves
Procedure: (§1) Various crop plants are grown in plastic pots with a diameter of 9 cm in a glasshouse to the stated stage and then treated with the particular herbicide or with a mixture of the herbicide and the safener by the post-emergence method. This entails the herbicide of the formula (A) and the compounds of the formula (B) being applied in the form of aqueous suspensions or emulsions with a water application rate which converts to 300 l/ha. 4 weeks after the treatment, the plants are assessed visually for every type of damage by the applied herbicides, taking particular account of the extent of persistent growth inhibition. The evaluation takes place in percentages (scale from 0 to 100%) compared with untreated controls.

SOHA = test: Effect and selectivity in corn: herbicidal effect; assay type: in vivo, Sorghum halepense; conditions: 3 leaves
Procedure: as §1

ECCG = test: Effect and selectivity in corn: herbicidal effect; assay type: in vivo, Echinochloa crus-galli; conditions: start of tillering (4 to 5 leaves)
Procedure: as §1

SVFA = test: Effect and selectivity in corn: herbicidal effect; assay type: in vivo
Procedure: as §1

| Structure (SMILES) | Phytotoxicity or herbicidal effect in % Corn (Corn; dose 25 g AS/ha) [%] | Phytotoxicity or herbicidal effect in % Corn (Corn; dose 50 g AS/ha) [%] | Phytotoxicity or herbicidal effect in % Corn (Corn; dose 100 g AS/ha) [%] | Phytotoxicity or herbicidal effect in % SOHA (SOHA; dose 25 g AS/ha) [%] | Phytotoxicity or herbicidal effect in % SOHA (SOHA; dose 50 g AS/ha) [%] | Phytotoxicity or herbicidal effect in % ECCG (ECCG; dose 25 g AS/ha) [%] | Phytotoxicity or herbicidal effect in % ECCG (ECCG; dose 50 g AS/ha) [%] | Phytotoxicity or herbicidal effect in % SVFA (SVFA; dose 25 g AS/ha) [%] | Phytotoxicity or herbicidal effect in % SVFA (SVFA; dose 50 g AS/ha) [%] | Phytotoxicity or herbicidal effect in % SVFA (SVFA; dose 100 g AS/ha) [%] | Phytotoxicity or herbicidal effect in % SOHA (SOHA; dose 100 g AS/ha) [%] | Phytotoxicity or herbicidal effect in % ECCG (ECCG; dose 100 g AS/ha) [%] | Phytotoxicity or herbicidal effect in % SVFA (SVFA; dose 25 + 12 g AS/ha) [%] | Phytotoxicity or herbicidal effect in % SVFA (SVFA; dose 50 + 25 g AS/ha) [%] | Phytotoxicity or herbicidal effect in % SOHA (SOHA; dose 25 + 12 g AS/ha) [%] | Phytotoxicity or herbicidal effect in % SOHA (SOHA; dose 50 + 25 g AS/ha) [%] | Phytotoxicity or herbicidal effect in % ECCG (ECCG; dose 25 + 12 g AS/ha) [%] | Phytotoxicity or herbicidal effect in % ECCG (ECCG; dose 50 + 25 g AS/ha) [%] |
| --- | --- | --- | --- | --- | --- | --- | --- | --- | --- | --- | --- | --- | --- | --- | --- | --- | --- | --- |
| CCC(=O)Nc1ccc(C(=O)N(C)C)c(S(=O)(=O)NC(=O)Nc2nc(OC)cc(OC)n2)c1.[Na] [A9, N-(4,6-Dimethoxypyrimidin-2-ylaminocarbonyl)-2-(N,N-dimethylaminocarbonyl)-5-(N-propionylamino)benzenesulfonamide sodium salt] | 0 | 15 | 35 | 98 | 100 | 99 | 100 |  |  |  |  |  |  |  |  |  |  |  |
| COC(=O)Nc1ccc(C(=O)N(C)C)c(S(=O)(=O)NC(=O)Nc2nc(OC)cc(OC)n2)c1.[Na] [A7, N-(4,6-Dimethoxypyrimidin-2-ylaminocarbonyl)-2-(N,N-dimethylaminocarbonyl)-5-(N-methoxycarbonylamino)benzenesulfonamide sodium salt] | 25 | 40 | 60 | 90 | 90 | 60 | 80 | 100 | 100 | 100 | 95 | 90 |  |  |  |  |  |  |
| COC(=O)Nc1ccc(C(=O)N(C)C)c(S(=O)(=O)NC(=O)Nc2nc(OC)cc(OC)n2)c1 [A13, N-(4,6-Dimethoxypyrimidin-2-ylaminocarbonyl)-2-(N,N-dimethylaminocarbonyl)-5-(N-methoxycarbonylamino)benzenesulfonamide] | 10 | 20 | 30 | 90 | 97 | 99 | 100 | 90 | 95 |  |  |  |  |  |  |  |  |  |
| COc1cc(OC)nc(NC(=O)NS(=O)(=O)c2cc(NC=O)ccc2C(=O)N(C)C)n1 [A8, N-(4,6-Dimethoxypyrimidin-2-ylaminocarbonyl)-2-(N,N-dimethylaminocarbonyl)-5-(N-formylamino)benzenesulfonamide] |  |  |  |  |  |  |  |  |  |  |  |  | 95 | 100 | 95 | 98 | 98 | 100 |
